Earlier results on five substances are cited in patent publication US9211305B2, “Pharmaceutical compositions with glycosaminoglycans and use thereof in the treatment of chronic ulcers” (LABORATORIOS FARMACEUTICOS ROVI S.A., priority 2008, dated 2015).

The conditions of data set [1]: in vivo; cited from earlier work.
A further data set concerns factor Xa. As to conditions: commercial products; cited from earlier work.
For data set [2] the following is noted: Ph. Eur. 6th Edition; cited from earlier work.

Where only a bound is given, the exact number is not on record here.

As for Dalteparin, in data set [1], the “Plasma Half-Life” value was 2.5 h and the “Plasma Half-Life Range” value is 2.3 to 2.8 h. Also, in the data set with factor Xa, the “anti-factor Xa activity” value is on record as 110-210 IU/mg.
Regarding Enoxaparin, in data set [1], the “Plasma Half-Life” value is 4.2 h and the “Plasma Half-Life Range” value is 4.0 to 4.4 h. Moreover, the “anti-factor Xa activity” value in the data set on factor Xa is recorded as 90-125 IU/mg.
For Heparin Sodium, the Anti-coagulating activity in data set [2] is given as at least 150 IU/mg.
Turning to Nadroparin, in data set [1], the “Plasma Half-Life” value is 3.7 h and the “Plasma Half-Life Range” value was 3.7 h.
As for Tinzaparin, in data set [1], the “Plasma Half-Life” value was 3.0 h and the “Plasma Half-Life Range” value was 3.0 h. Besides, in the data set with factor Xa, the “anti-factor Xa activity” value is 70-120 IU/mg.
